In patent US11389415B2, “Methods of regulating cannabinoid receptor activity-related disorders and diseases” (The United States of America as represented by the …, priority 2012, dated 2022):

Test system: rat C6 glioma xenografts
Assay: Gene expression profiling (microarray, GO term and PAGE gene set analysis) in rat C6 glioma xenografts
Format: in vivo, mouse
Conditions: for Z score, GO0000775 Chromosome pericentric region / Z score, GO0004527 Exonuclease activity / Z score, GO0005634 Nucleus / Z score, GO0006260 DNA replication / Z score, GO0006270 DNA replication initiation / Z score, GO0007049 Cell cycle / Z score, GO0007051 Spindle organization and biogenesis / Z score, GO0007067 Mitosis / Z score, GO0048015 Phosphoinositide mediated signaling / Z score, GO0051301 Cell division: MNF_Crtl
Procedure: Analysis of gene expression in rat C6 glioma xenografts. Total RNA was isolated from rat C6 glioma xenografts harvested from vehicle and MNF-treated mice (n=3 per group, cohort 1). This analysis was repeated in a second cohort of animals (n=3 per group, cohort 2). Total cellular RNA was extracted using an RNeasy plus mini kit (QIAGEN, Valencia, Calif.), and its quality was assessed using an Agilent BioAnalyzer using RNA 6000 Nano Chips (Agilent Technologies, Santa Clara, Calif.). Transcriptional profiling was determined using Illumina Sentrix BeadChips (Illumina, San Diego, Calif.). Total RNA was used to generate biotin-labeled cRNA with the Illumina TotalPrep RNA Amplification Kit. In short, 0.5 ug of total RNA was first converted into single-stranded cDNA with reverse transcriptase using an oligo-dT primer containing the T7 RNA polymerase promoter site and then copied to produce double-stranded cDNA molecules. The double-stranded cDNA was cleaned and concentrated with the supplied columns and used in an overnight in-vitro transcription reaction where single-stranded RNA (cRNA) was generated incorporating biotin-16-UTP. A total of 0.75 μg of biotin-labeled cRNA was hybridized at 58° C. for 16 hours to Illumina's Sentrix Rat Ref-12 Expression BeadChips. Each BeadChip has ˜22,000 well-annotated RefSeq transcripts with approximately 30-fold redundancy. The arrays were washed, blocked and the labeled cRNA was detected by staining with streptavidin-Cy3. Hybridized arrays were scanned using an Illumina BeadStation 500× Genetic Analysis Systems scanner and the image data extracted using Illumina's GenomeStudio software, version 1.6.1. For statistical analysis, the expression data were filtered to include only probes with a consistent signal on each chip and an Illumina detecton p value <0.02.
Correlation analysis, sample clustering analysis and principal component analysis was performed to identify/exclude any possible outliers. The resulting dataset was next analyzed with DIANE 6.0, a spreadsheet-based microarray analysis program using value statistics for Z-Score reliability below 0.05; and mean background-corrected signal intensity greater than zero.
Gene set enrichment analysis use gene expression values or gene expression change values for all of the genes in the microarray. Parametric analysis of gene set enrichment (PAGE) was used using the WEB-PAGE GSA tool for gene set analysis. Gene Sets include the MSIG database, Gene Ontology Database, GAD human disease and mouse phenotype gene sets were used to explore functional level changes. Gene-gene interaction was also analyzed using the INGENUITY® Pathway Analysis (IPA) system (INGENUITY® Systems).

[1] = Table 9, gene sets influenced by MNF treatment

COc1ccc(C[C@@H](C)NC[C@H](O)c2cc(O)cc(O)c2)c2ccccc12 [(R,R′)-MNF, (R,R′)-4′-methoxy-1-naphthylfenoterol]
Z score, SHEPARD_GENES_COMMON_BW_CB_MO (MNF_Control, cohort 2): −4.3867 | Z score, STEMCELL_NEURAL_UP (MNF_Control, cohort 2): −5.0064 | Z score, TARTE_MATURE_PC (MNF_Control, cohort 2): 5.3293 | Z score, TARTE_PLASMA_BLASTIC (MNF_Control, cohort 2): −6.7905 | Z score, VERNELL_PRB_CLSTR1 (MNF_Control, cohort 2): −6.5636 | Z score, YU_CMYC_UP (MNF_Control, cohort 2): −7.3723 | Z score, ZHAN_MM_CD138_PR_VS_REST (MNF_Control, cohort 2): −9.0080 | Z score, ADIP_DIFF_CLUSTERS (MNF_Control, combined cohorts): −7.9684 | Z score, ATRBRCAPATHWAY (MNF_Control, combined cohorts): −3.4407 | Z score, BRCA_PROGNOSIS_NEG (MNF_Control, combined cohorts): −6.5976 | Z score, BRENTANI_REPAIR (MNF_Control, combined cohorts): −4.2370 | Z score, CANCER_UNDIFFERENTIATED_META_UP (MNF_Control, combined cohorts): −7.7981 | Z score, CELL_CYCLE (MNF_Control, combined cohorts): −8.6730 | Z score, CELL_CYCLE_KEGG (MNF_Control, combined cohorts): −7.8764 | Z score, CMV_IE86_UP (MNF_Control, combined cohorts): −8.5032 | Z score, CROONQUEST_IL6_STARVE_UP (MNF_Control, combined cohorts): −10.7172 | Z score, CROONQUIST_IL6_RAS_DN (MNF_Control, combined cohorts): −9.7453 | Z score, DAC_FIBRO_DN (MNF_Control, combined cohorts): −6.4794 | Z score, DNA_REPLICATION_REACTOME (MNF_Control, combined cohorts): −7.3185 | Z score, DOX_RESIST_GASTRIC_UP (MNF_Control, combined cohorts): −10.1840 | Z score, E2F1_DNA_UP (MNF_Control, combined cohorts): −5.4288 | Z score, GAY_YY1_DN (MNF_Control, combined cohorts): −7.4972 | Z score, GOLDRATH_HP (MNF_Control, combined cohorts): −3.4750 | Z score, HDACI_COLON_BUT12 HRS_UP (MNF_Control, combined cohorts): 5.8481 | Z score, HDACI_COLON_BUT16HRS_UP (MNF_Control, combined cohorts): 4.8024 | Z score, HDACI_COLON_BUT24HRS_UP (MNF_Control, combined cohorts): 4.4492 | Z score, HDACI_COLON_TSABUT_UP (MNF_Control, combined cohorts): 5.2313 | Z score, HIPPOCAMPUS_DEVELOPMENT_POSTNATAL (MNF_Control, combined cohorts): 11.4209 | Z score, HOFFMANN_BIVSBII_BI_TABLE2 (MNF_Control, combined cohorts): −8.5773 | Z score, HYPOPHYSECTOMY_RAT_DN (MNF_Control, combined cohorts): 5.3951 | Z score, IDX_TSA_UP_CLUSTER3 (MNF_Control, combined cohorts): −11.3388 | Z score, IRITANI_ADPROX_LYMPH (MNF_Control, combined cohorts): −5.7142 | Z score, KAMMINGA_EZH2_TARGETS (MNF_Control, combined cohorts): −8.8163 | Z score, KENNY_WNT_UP (MNF_Control, combined cohorts): −6.9481 | Z score, LAMB_CYCLIN_D3_GLOCUS (MNF_Control, combined cohorts): −5.0503 | Z score, LEE_TCELLS2_UP (MNF_Control, combined cohorts): −6.9464 | Z score, LEE_TCELLS3_UP (MNF_Control, combined cohorts): −10.3427 | Z score, LI_FETAL_VS_WT_KIDNEY_DN (MNF_Control, combined cohorts): −10.4609 | Z score, MANALO_HYPOXIA_DN (MNF_Control, combined cohorts): −6.7155 | Z score, MIDDLEAGE_DN (MNF_Control, combined cohorts): −8.2457 | Z score, MOREAUX_TACI_HI_IN_PPC_UP (MNF_Control, combined cohorts): −4.9180 | Z score, MOREAUX_TACI_HI_VS_LOW_DN (MNF_Control, combined cohorts): −5.1872 | Z score, OLDAGE_DN (MNF_Control, combined cohorts): −8.1220 | Z score, P21_P53_ANY_DN (MNF_Control, combined cohorts): −8.8530 | Z score, PEART_HISTONE_DN (MNF_Control, combined cohorts): −5.7817 | Z score, PODI_KO_UP (MNF_Control, combined cohorts): −5.1416 | Z score, PRMT5_KD_UP (MNF_Control, combined cohorts): −8.9362 | Z score, REN_E2F1_TARGETS (MNF_Control, combined cohorts): −4.4393 | Z score, SASAKI_ATL_UP (MNF_Control, combined cohorts): −7.2897 | Z score, SASAKI_TCELL_LYMPHOMA_VS_CD4_UP (MNF_Control, combined cohorts): −7.2897 | Z score, SERUM_FIBROBLAST_CELLCYCLE (MNF_Control, combined cohorts): −12.2668 | Z score, SHEPARD_BMYB_MORPHOLINO_DN (MNF_Control, combined cohorts): −6.0639 | Z score, SHEPARD_CRASH_AND_BURN_MUT_VS_WT_DN (MNF_Control, combined cohorts): −5.5788 | Z score, SHEPARD_GENES_COMMON_BW_CB_MO (MNF_Control, combined cohorts): −5.7440 | Z score, STEMCELL_NEURAL_UP (MNF_Control, combined cohorts): −7.2833 | Z score, TARTE_MATURE_PC (MNF_Control, combined cohorts): 6.8026 | Z score, TARTE_PLASMA_BLASTIC (MNF_Control, combined cohorts): −8.3308 | Z score, VERNELL_PRB_CLSTR1 (MNF_Control, combined cohorts): −7.4144 | Z score, YU_CMYC_UP (MNF_Control, combined cohorts): −8.4501 | Z score, ZHAN_MM_CD138_PR_VS_REST (MNF_Control, combined cohorts): −10.7002 | Z score, GO0000775 Chromosome pericentric region (Combined): −6.3081 | Z score, GO0004527 Exonuclease activity (Combined): −5.8765 | Z score, GO0005634 Nucleus (Combined): −9.4291 | Z score, GO0006260 DNA replication (Combined): −7.3157 | Z score, GO0006270 DNA replication initiation (Combined): −5.0248 | Z score, GO0007049 Cell cycle (Combined): −9.3510 | Z score, GO0007051 Spindle organization and biogenesis (Combined): −6.7039 | Z score, GO0007067 Mitosis (Combined): −10.1574 | Z score, GO0048015 Phosphoinositide mediated signaling (Combined): −5.2545 | Z score, GO0051301 Cell division (Combined): −10.1585 | Z score, GO0000775 Chromosome pericentric region (Set 1): −6.7644 | Z score, GO0004527 Exonuclease activity (Set 1): −2.5829 | Z score, GO0005634 Nucleus (Set 1): −2.1680 | Z score, GO0006260 DNA replication (Set 1): −4.7695 | Z score, GO0006270 DNA replication initiation (Set 1): −4.0283 | Z score, GO0007049 Cell cycle (Set 1): −5.1361 | Z score, GO0007051 Spindle organization and biogenesis (Set 1): −4.6166 | Z score, GO0007067 Mitosis (Set 1): −7.5266 | Z score, GO0048015 Phosphoinositide mediated signaling (Set 1): −4.2781 | Z score, GO0051301 Cell division (Set 1): −6.9059 | Z score, GO0000775 Chromosome pericentric region (Set 2): −3.5296 | Z score, GO0004527 Exonuclease activity (Set 2): −5.4622 | Z score, GO0005634 Nucleus (Set 2): −9.9454 | Z score, GO0006260 DNA replication (Set 2): −6.0446 | Z score, GO0006270 DNA replication initiation (Set 2): −3.7775 | Z score, GO0007049 Cell cycle (Set 2): −8.0162 | Z score, GO0007051 Spindle organization and biogenesis (Set 2): −5.2288 | Z score, GO0007067 Mitosis (Set 2): −7.6563 | Z score, GO0048015 Phosphoinositide mediated signaling (Set 2): −3.5441 | Z score, GO0051301 Cell division (Set 2): −8.0673 | Z score, CELL_CYCLE [1]: −7.4222 | Z score, CROONQUIST_IL6_STARVE_UP [1]: −9.0059 | Z score, HDACI_COLON_BUT12 HRS_UP [1]: 3.6676 | Z score, HIPPOCAMPUS_DEVELOPMENT_POSTNATAL [1]: 10.3511 | Z score, HYPOPHYSECTOMY_RAT_DN [1]: 3.9294 | Z score, IDX_TSA_UP_CLUSTER3 [1]: −10.1593 | Z score, P21_P53_ANY_DN [1]: −7.4300 | Z score, SERUM_FIBROBLAST_CELLCYCLE [1]: −10.6997 | Z score, TARTE_MATURE_PC [1]: 5.3293
